Measured values: ChEMBL document CHEMBL1201862, “PubChem BioAssay data set” (2004)
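Exposure lasted 48 hours, with cells grown in 96-well plates and compounds tested at five concentrations. GI50 = concentration required for 50% inhibition of growth.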 Active and inactive are the calls of the source. Cut-off read from the data, not from the text of the source: active = GI50 up to about 1.1 µM and inactive = higher.

What was measured:
Assay in all cases: NCI anticancer screen, dose series, 48 h
NCI-H460 = tested on: NCI-H460
COLO 205 = tested on: COLO 205
OVCAR-8 = tested on: OVCAR-8
786-0 = tested on: 786-0
HOP-62 = tested on: HOP-62
DU-145 = tested on: DU-145
UO-31 = tested on: UO-31
Hs-578T = tested on: Hs-578T
M14 = tested on: M14
MDA-MB-231 = tested on: MDA-MB-231
SW-620 = tested on: SW-620
SK-MEL-2 = tested on: SK-MEL-2
CCRF-CEM = tested on: CCRF-CEM
SF-295 = tested on: SF-295
CAKI-1 = tested on: CAKI-1
HT-29 = tested on: HT-29
BT-549 = tested on: BT-549
Malme-3M = tested on: Malme-3M
HL-60 = tested on: HL-60
OVCAR-5 = tested on: OVCAR-5

Measured: GI50

CC(=O)Nc1ccc(-c2nc3ccccc3s2)cc1I
inactive: NCI-H460 49.4 µM | COLO 205 89.3 µM | OVCAR-8 18.5 µM | 786-0 18.5 µM | HOP-62 15.6 µM | DU-145 11 µM | UO-31 15.1 µM | Hs-578T 39.5 µM | M14 36.8 µM | MDA-MB-231 17.5 µM | SW-620 > 100 µM | SK-MEL-2 50.4 µM | CCRF-CEM > 100 µM | SF-295 29.4 µM | CAKI-1 20 µM | HT-29 > 65.6 µM | BT-549 25.5 µM | Malme-3M 34.8 µM | HL-60 > 100 µM

c1ccc2c(c1)-c1nc3ccccc3cc1C2N1CCOCC1 (stereo not given)
inactive: COLO 205 > 100 µM | OVCAR-8 93.5 µM | 786-0 > 100 µM | HOP-62 > 100 µM | DU-145 > 100 µM | UO-31 1.37 µM | Hs-578T 46.6 µM | M14 > 100 µM | MDA-MB-231 > 100 µM | SW-620 > 100 µM | SK-MEL-2 > 100 µM | CCRF-CEM 28.4 µM | SF-295 > 100 µM | CAKI-1 > 100 µM | HT-29 92.5 µM | OVCAR-5 > 100 µM | BT-549 > 100 µM | Malme-3M > 100 µM | HL-60 34.5 µM

[N-]=[N+]=Nc1c(Cc2ccccc2)c(=O)oc2ccccc12
inactive: NCI-H460 18.1 µM | COLO 205 36.9 µM | 786-0 40.6 µM | HOP-62 20.7 µM | DU-145 51.9 µM | UO-31 36.1 µM | Hs-578T 19.1 µM | M14 25.5 µM | MDA-MB-231 39.3 µM | SW-620 14.8 µM | SK-MEL-2 28.1 µM | CCRF-CEM 12.7 µM | SF-295 33.4 µM | CAKI-1 23.8 µM | HT-29 21.7 µM | OVCAR-5 61.9 µM | BT-549 24.5 µM | Malme-3M 38.3 µM | HL-60 90.8 µM

CCCCCCOP(=O)(OCCCCCC)OC(C(=O)OC)C(F)(F)F (stereo not given)
inactive: COLO 205 > 100 µM | OVCAR-8 > 100 µM | 786-0 > 100 µM | HOP-62 > 100 µM | DU-145 > 100 µM | UO-31 > 100 µM | Hs-578T > 100 µM | M14 > 100 µM | MDA-MB-231 > 100 µM | SW-620 > 100 µM | SK-MEL-2 > 100 µM | CCRF-CEM > 100 µM | SF-295 > 100 µM | CAKI-1 > 100 µM | HT-29 > 100 µM | OVCAR-5 > 100 µM | BT-549 > 100 µM | Malme-3M > 100 µM | HL-60 > 100 µM

COCc1nc(N)nc(N2N=C(C)CC2(C)C)n1
inactive: NCI-H460 > 100 µM | COLO 205 > 100 µM | OVCAR-8 > 100 µM | 786-0 > 100 µM | HOP-62 > 100 µM | DU-145 > 100 µM | UO-31 > 100 µM | Hs-578T > 100 µM | M14 > 100 µM | MDA-MB-231 > 100 µM | SW-620 > 100 µM | SK-MEL-2 > 100 µM | CCRF-CEM > 100 µM | SF-295 > 100 µM | CAKI-1 > 100 µM | HT-29 > 100 µM | OVCAR-5 > 100 µM | BT-549 > 100 µM | HL-60 > 100 µM

C=C(CCC(C(=O)O)C1CCC2(C)C3=C(CCC12C)C1(C)CCC(O)C(C)(C)C1CC3)C(C)C (stereo not given)
inactive: NCI-H460 21.1 µM | COLO 205 > 100 µM | OVCAR-8 19.1 µM | 786-0 45.1 µM | HOP-62 8.91 µM | DU-145 > 100 µM | UO-31 > 100 µM | Hs-578T 77.8 µM | M14 40.8 µM | MDA-MB-231 71 µM | SW-620 50.9 µM | SK-MEL-2 52 µM | CCRF-CEM > 10 µM | SF-295 38.5 µM | CAKI-1 > 100 µM | HT-29 32.7 µM | OVCAR-5 > 100 µM | BT-549 83.6 µM | HL-60 > 10 µM

CCCCSc1n/c(=C\c2ccc(N(C)C)cc2)c2nnnn12
inactive: NCI-H460 > 100 µM | COLO 205 > 100 µM | OVCAR-8 > 100 µM | 786-0 > 100 µM | HOP-62 > 100 µM | DU-145 > 100 µM | UO-31 73.8 µM | Hs-578T > 100 µM | M14 > 100 µM | MDA-MB-231 > 100 µM | SW-620 > 100 µM | SK-MEL-2 > 100 µM | SF-295 > 100 µM | CAKI-1 > 100 µM | HT-29 > 100 µM | OVCAR-5 > 100 µM | BT-549 > 100 µM | Malme-3M > 100 µM | HL-60 > 100 µM

Cc1nc(N/N=C/c2ccccc2Cl)[nH]c(=O)c1CCO
inactive: NCI-H460 80 µM | COLO 205 > 100 µM | OVCAR-8 22 µM | 786-0 > 100 µM | HOP-62 21.1 µM | DU-145 > 100 µM | UO-31 > 100 µM | Hs-578T 29.4 µM | M14 87.7 µM | MDA-MB-231 71 µM | SW-620 > 100 µM | CCRF-CEM > 100 µM | SF-295 25.2 µM | CAKI-1 > 10 µM | HT-29 > 100 µM | OVCAR-5 > 100 µM | BT-549 57.1 µM | Malme-3M 22 µM | HL-60 > 100 µM

COC(=O)c1c(O)ccc2c1c1c(n2Cc2ccccc2OC)C(=O)c2ccccc2C1
inactive: NCI-H460 29 µM | COLO 205 15.5 µM | OVCAR-8 91.2 µM | 786-0 78.9 µM | HOP-62 75.5 µM | DU-145 > 100 µM | UO-31 44.5 µM | Hs-578T > 100 µM | M14 46.2 µM | MDA-MB-231 44.1 µM | SW-620 81.1 µM | SK-MEL-2 87.5 µM | CCRF-CEM 24.6 µM | CAKI-1 65.3 µM | HT-29 36.5 µM | BT-549 > 100 µM | Malme-3M > 100 µM | HL-60 > 100 µM

Cc1ccc(S(=O)(=O)n2ccc(-c3ccc4ccn(S(=O)(=O)c5ccc(C)cc5)c4c3)c2)cc1
inactive: COLO 205 > 100 µM | OVCAR-8 > 100 µM | 786-0 > 100 µM | HOP-62 > 100 µM | DU-145 > 100 µM | UO-31 > 100 µM | Hs-578T 27.9 µM | M14 > 100 µM | MDA-MB-231 > 100 µM | SW-620 > 100 µM | SK-MEL-2 > 100 µM | CCRF-CEM > 100 µM | SF-295 > 100 µM | CAKI-1 > 100 µM | HT-29 > 100 µM | OVCAR-5 > 100 µM | BT-549 > 100 µM | Malme-3M > 100 µM | HL-60 > 100 µM

O=[N+]([O-])c1ccc(/C=C(/c2ccc([N+](=O)[O-])o2)S(=O)(=O)c2ccccc2)cc1
inactive: NCI-H460 > 100 µM | COLO 205 47.6 µM | OVCAR-8 29.4 µM | 786-0 > 100 µM | HOP-62 50.6 µM | DU-145 35.5 µM | UO-31 > 100 µM | Hs-578T 26.1 µM | M14 56.2 µM | MDA-MB-231 14.3 µM | SW-620 52 µM | SK-MEL-2 > 100 µM | SF-295 > 100 µM | CAKI-1 > 100 µM | HT-29 41.1 µM | OVCAR-5 > 100 µM | BT-549 36.1 µM | Malme-3M 25.2 µM | HL-60 17.5 µM

O=c1n(N=[S+]([O-])(c2ccccc2)c2ccccc2)c(=O)n2n1C1C=CC2CC1
inactive: NCI-H460 > 100 µM | COLO 205 > 100 µM | OVCAR-8 > 100 µM | 786-0 > 100 µM | HOP-62 > 100 µM | DU-145 > 100 µM | UO-31 > 100 µM | Hs-578T > 100 µM | M14 > 100 µM | MDA-MB-231 > 100 µM | SW-620 > 100 µM | SK-MEL-2 > 100 µM | CCRF-CEM > 100 µM | SF-295 > 100 µM | CAKI-1 > 100 µM | HT-29 > 100 µM | OVCAR-5 > 100 µM | BT-549 > 100 µM | HL-60 > 100 µM

CNC(=O)OCc1nc(N=[N+]=[N-])n(C)c1COC(=O)NC
inactive: NCI-H460 29.6 µM | COLO 205 32.8 µM | OVCAR-8 58.9 µM | 786-0 > 10 µM | HOP-62 52.7 µM | DU-145 49.8 µM | UO-31 > 10 µM | Hs-578T > 100 µM | MDA-MB-231 95.5 µM | SW-620 66.1 µM | SK-MEL-2 26.7 µM | CCRF-CEM 32.1 µM | SF-295 67.1 µM | CAKI-1 20.7 µM | HT-29 58.3 µM | OVCAR-5 > 100 µM | BT-549 > 10 µM | Malme-3M 55.7 µM | HL-60 17.5 µM

O=CN1CCN(C(=O)c2ccc(Cl)cc2Cl)C1=S
inactive: NCI-H460 > 100 µM | COLO 205 > 100 µM | OVCAR-8 > 100 µM | 786-0 30.7 µM | HOP-62 > 100 µM | DU-145 84.5 µM | Hs-578T 32.4 µM | M14 > 100 µM | MDA-MB-231 > 100 µM | SW-620 77.8 µM | SK-MEL-2 > 100 µM | CCRF-CEM 27.5 µM | SF-295 > 100 µM | CAKI-1 41.1 µM | HT-29 > 100 µM | OVCAR-5 > 100 µM | BT-549 > 100 µM | Malme-3M > 100 µM | HL-60 20.4 µM
